Reference: patent US8871767B2, “2-arylimidazo[1,2-B]pyridazine, 2-phenylimidazo[1,2-A]pyridine, and 2-phenylimidazo[1,2-A]pyrazine derivatives” (Hengrui (USA) Ltd., priority 2010, dated 2014)
Read-outs that look alike come from different tables or passages of the source.

Columns and labels:
[1] = test system: Hedgehog pathway activation (GLi-luciferase reporter) in Shh Light II reporter cells; assay: Hedgehog pathway activation on Shh Light II reporter cells measured by luciferase activity; assay type: cell-based; conditions: Mus musculus, Shh Light II
Outline: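 Shh Light II reporter cells carrying a hedgehog-responsive GLi-luciferase reporter were stimulated either with 500 nM SAG, a direct Smoothened agonist, or with conditioned media containing human Sonic Hedgehog (hShh). Test compounds were evaluated for blocking this pathway activation, quantified by luciferase activity. Cell viability was monitored in parallel with the Celltiter-Blue® assay.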

[2] = test system: Hedgehog pathway activation on 10T1/2/Smo#3 cells (C3H10T1/2 cells transfected with human Smoothened receptor); assay: Hedgehog pathway activation on 10T1/2/Smo#3 cells measured by ALP activity; assay type: cell-based; conditions: Mus musculus, C3H 10T1/2, 10T1/2/Smo#3 cells
Protocol: Hedgehog conditioned media was obtained by transfecting 293H cells with the full length gene encoding human Sonic Hedgehog (hShh) inserted into the pCMV6 expression vector, which contains a neomycin selectable marker and expresses the protein of interest with a C-terminal FLAG affinity tag. After selection in G418 containing media, conditioned media from Hedgehog expressing clones were tested for the ability to activate the hedgehog-responsive GLi-luciferase reporter in the Shh Light II cell line obtained by license from John Hopkins University (Taipale J, et al. Effects of oncogenic mutations in Smoothened and Patched can be reversed by cyclopamine. Nature 406: 1005-1009, 2000).
C3H10T1/2 cells were transfected with a pCMV expression vector containing the full length gene sequence encoding the human Smoothened receptor. Pooled cells, designated 10T1/2/Smo#3, growing in G418 selection media responded to activation by 10-20% conditioned hShh media with an approximate 5-10 fold increase in alkaline phosphaste (ALP) activity over untransfected parent C3H10T1/2 cells as measured by the conversion of the free acid of 4-methylumbelliferyl phosphate to a fluorescent product.
A test compound library was screened against hShh and 500 nM SAG (a direct agonist of the Smoothened receptor) activated 10T1/2/Smo#3 cells and Shh Light II reporter cells for the ability to block Hedgehog pathway activation. Concurrently, cell viability was measured by utilizing Celltiter-Blue® (Promega, Madison Wis.) viability assay. Active compounds were defined as those that inhibited Hedgehog signaling by greater than 50% with no concurrent loss in cell viability.
Their inhibitory activity against Hedgehog pathway activation on 10T1/2/Smo#3 cells as measured by ALP activity and Shh Light II reporter cells as measured by luciferase activity is shown in Table 1 below. In Table 1, +++ stands for an IC50 value that is less than 0.3 μM, ++ between 0.3 and 3 μM, + between 3 and 30 μM.
Additional data for compounds of the invention is shown below in Table 2. Their inhibitory activities against Hedgehog pathway activation are shown as IC50 values in μM on 10T1/2/Smo#3 cells as measured by ALP activity, or on Shh Light II reporter cells as measured by luciferase activity (hShh activation).

[3] = SAG activation (500 nM SAG), read-out: Shh Light II luciferase activity (SAG activation)
[4] = hShh activation, read-out: Shh Light II luciferase activity (hShh activation)
[5] = hShh activation, ALP activity, read-out: 10T1/2/Smo#3 ALP activity (hShh Activation)
[6] = hShh activation, read-out: Shh (IC50, inhibition of Hedgehog pathway activation)
[7] = measured by ALP activity, read-out: ALP (IC50, inhibition of Hedgehog pathway activation)

| Structure (SMILES) | IC50 [1, 6] | IC50 [2, 7] | other results |
| --- | --- | --- | --- |
| COc1ccc2nc(-c3ccc(C)c(NC(=O)C(C)(C)C)c3)cn2n1 [Example 4, N-(5-(6-methoxyimidazo[1,2-b]pyridazin-2-yl)-2-methylphenyl)pivalamide] | – | – | IC50 [1, 3]: 300 to 3000 nM; IC50 [1, 4]: 3000 to 30000 nM; IC50 [2, 5]: 300 to 3000 nM |
| CC(C)(C)C(=O)Nc1cc(-c2cn3ccc(Cl)cc3n2)ccc1C(F)(F)F [Example 82, N-(5-(7-chloroimidazo[1,2-a]pyridin-2-yl)-2-(trifluoromethyl)phenyl)pivalamide] | 6060 nM | > 10000 nM | – |
| CCCCOc1ccc2nc(-c3ccc(OC(F)(F)F)c(NC(=O)C(C)(C)C)c3)cn2n1 [Example 249, N-(5-(6-butoxyimidazo[1,2-b]pyridazin-2-yl)-2-(trifluoromethoxy)phenyl)pivalamide] | – | 889 nM | – |
| CCOC(=O)c1ccccc1-c1ccc2nc(-c3ccc(C(F)(F)F)c(NC(=O)C(C)(C)C)c3)cn2n1 [Example 257, ethyl 2-(2-(3-pivalamido-4-(trifluoromethyl)phenyl)imidazo[1,2-b]pyridazin-6-yl)benzoate] | – | 497 nM | – |
| CC(C)(C)C(=O)Nc1cc(-c2cn3nc(-c4ccccc4F)ccc3n2)ccc1C1CC1 [Example 271, N-(2-cyclopropyl-5-(6-(2-fluorophenyl)imidazo[1,2-b]pyridazin-2-yl)phenyl)pivalamide] | – | 246 nM | – |
| Cc1ccc(-c2cn3nc(NC(=O)c4ncccc4Cl)ccc3n2)cc1NC(=O)C(C)(C)C [compound 612] | 78 nM | – | – |
| Cc1ccc(-c2cn3nc(NC(=O)c4cc(Cl)ccn4)ccc3n2)cc1NC(=O)C(C)(C)C [compound 613] | 283 nM | – | – |
| Cc1ccc(-c2cn3nc(NCc4cccc(C=CC(=O)NO)c4)ccc3n2)cc1NC(=O)C(C)(C)C [compound 614] | 4370 nM | – | – |
| Cc1ccc(-c2cn3nc(Cl)ccc3n2)cc1NC(=O)c1cccc(C=CC(=O)NO)c1 [compound 615] | 2240 nM | – | – |
| COc1ccc2nc(-c3ccc(C)c(NC(=O)c4cccc(C=CC(=O)NO)c4)c3)cn2n1 [compound 616] | > 10000 nM | – | – |
| Cc1ccc(-c2cn3nc(Cl)ccc3n2)cc1NS(=O)(=O)c1cccc(C=CC(=O)NO)c1 [compound 617] | 8600 nM | – | – |
| COc1ccc2nc(-c3ccc(C)c(NS(=O)(=O)c4cccc(C=CC(=O)NO)c4)c3)cn2n1 [compound 618] | 9080 nM | – | – |
| Cc1ccc(-c2cn3nc(-c4cccc(F)c4Cl)ccc3n2)cc1NC(=O)C(C)(C)C [compound 619] | 35 nM | – | – |
| Cc1ccc(-c2cn3nc(Cl)ccc3n2)cc1NC(=O)C(C)(C)C#N [compound 620] | 3200 nM | – | – |
| Cc1ccc(-c2cn3nc(-c4cccnc4C(F)(F)F)ccc3n2)cc1NC(=O)C(C)(C)C#N [compound 621, 2-cyano-2-methyl-N-(2-methyl-5-(6-(2-(trifluoromethyl)pyridin-3-yl)imidazo[1,2-b]pyridazin-2-yl)phenyl)propanamide] | 53 nM | – | – |
| Cc1ccc(C2CN3N=C(c4cccnc4C(F)(F)F)C=CC3=N2)cc1NC(=O)C(C)(C)CN (stereo not drawn) [compound 622, 3-amino-2,2-dimethyl-N-(2-methyl-5-(6-(2-(trifluoromethyl)pyridin-3-yl)-2,3-dihydroimidazo[1,2-b]pyridazin-2-yl)phenyl)propanamide] | 534 nM | – | – |
| Cc1ccc(-c2cn3nc(-c4cccnc4C(F)(F)F)ccc3n2)cc1NS(=O)(=O)c1cccc(C=CC(=O)Nc2ccccc2N)c1 [compound 624, N-(2-aminophenyl)-3-(3-(N-(2-methyl-5-(6-(2-(trifluoromethyl)pyridin-3-yl)imidazo[1,2-b]pyridazin-2-yl)phenyl)sulfamoyl)phenyl)acrylamide] | 824 nM | – | – |
| Cc1ccc(-c2cn3nc(-c4cccnc4C(F)(F)F)ccc3n2)cc1NC(=O)c1cccc(C=CC(=O)NO)c1 [compound 625, 3-(3-(hydroxyamino)-3-oxoprop-1-en-1-yl)-N-(2-methyl-5-(6-(2-(trifluoromethyl)pyridin-3-yl)imidazo[1,2-b]pyridazin-2-yl)phenyl)benzamide] | 813 nM | – | – |
| Cc1ccc(-c2cn3nc(-c4cccnc4C(F)(F)F)ccc3n2)cc1NS(=O)(=O)c1cccc(C=CC(=O)NO)c1 [compound 626, N-hydroxy-3-(3-(N-(2-methyl-5-(6-(2-(trifluoromethyl)pyridin-3-yl)imidazo[1,2-b]pyridazin-2-yl)phenyl)sulfamoyl)phenyl)acrylamide] | 2910 nM | – | – |

Now from value to molecule, other results behind:

| IC50 [1, 6] | IC50 [2, 7] | Structure (SMILES) | other results |
| --- | --- | --- | --- |
| 1070 nM | 2430 nM | CC(C)(C)C(=O)Nc1cc(-c2cn3cc(Cl)ccc3n2)ccc1C(F)(F)F [Example 81, N-(5-(6-chloroimidazo[1,2-a]pyridin-2-yl)-2-(trifluoromethyl)phenyl)pivalamide] | IC50 [1, 3]: 300 to 3000 nM; IC50 [1, 4]: 300 to 3000 nM; IC50 [2, 5]: 300 to 3000 nM |
| – | 2970 nM | CC(C)(C)C(=O)Nc1cc(-c2cn3nc(Cl)ccc3n2)ccc1OC(F)(F)F [Example 245, N-(5-(6-chloroimidazo[1,2-b]pyridazin-2-yl)-2-(trifluoromethoxy)phenyl)pivalamide] | – |
| – | 1320 nM | CCOc1ccc2nc(-c3ccc(OC(F)(F)F)c(NC(=O)C(C)(C)C)c3)cn2n1 [Example 246, N-(5-(6-ethoxyimidazo[1,2-b]pyridazin-2-yl)-2-(trifluoromethoxy)phenyl)pivalamide] | – |
| – | 259 nM | C[C@@H]1CN(c2ccc3nc(-c4ccc(C(F)(F)F)c(NC(=O)C(C)(C)C)c4)cn3n2)C[C@H](C)O1 [Example 250, N-(5-(6-(2,6-dimethylmorpholino)imidazo[1,2-b]pyridazin-2-yl)-2-(trifluoromethyl)phenyl)pivalamide] | – |
| – | 518 nM | CC(C)Oc1ccccc1-c1ccc2nc(-c3ccc(C(F)(F)F)c(NC(=O)C(C)(C)C)c3)cn2n1 [Example 251, N-(5-(6-(2-isopropoxyphenyl)imidazo[1,2-b]pyridazin-2-yl)-2-(trifluoromethyl)phenyl)pivalamide] | – |
| – | 360 nM | CC(=O)c1cccc(-c2ccc3nc(-c4ccc(C(F)(F)F)c(NC(=O)C(C)(C)C)c4)cn3n2)c1 [Example 254, N-(5-(6-(3-acetylphenyl)imidazo[1,2-b]pyridazin-2-yl)-2-(trifluoromethyl)phenyl)pivalamide] | – |
| – | 1530 nM | CC1CN(c2ccc3nc(-c4ccc(OC(F)(F)F)c(NC(=O)C(C)(C)C)c4)cn3n2)CC(C)O1 (stereo not drawn) [Example 266, N-(5-(6-(2,6-dimethylmorpholino)imidazo[1,2-b]pyridazin-2-yl)-2-(trifluoromethoxy)phenyl)pivalamide] | – |
| – | 2080 nM | CC(C)(C)C(=O)Nc1cc(-c2cn3nc(N4CCOCC4)ccc3n2)ccc1OC(F)(F)F [Example 267, N-(5-(6-morpholinoimidazo[1,2-b]pyridazin-2-yl)-2-(trifluoromethoxy)phenyl)pivalamide] | – |
| – | 1940 nM | CC(C)(C)C(=O)Nc1cc(-c2cn3nc(N4CCN(S(C)(=O)=O)CC4)ccc3n2)ccc1OC(F)(F)F [Example 268, N-(5-(6-(4-(methylsulfonyl)piperazin-1-yl)imidazo[1,2-b]pyridazin-2-yl)-2-(trifluoromethoxy)phenyl)pivalamide] | – |
| – | 1010 nM | CC(C)(C)C(=O)Nc1cc(-c2cn3nc(N4CCC(O)CC4)ccc3n2)ccc1OC(F)(F)F [Example 269, N-(5-(6-(4-hydroxypiperidin-1-yl)imidazo[1,2-b]pyridazin-2-yl)-2-(trifluoromethoxy)phenyl)pivalamide] | – |
| – | 9430 nM | CC(C)(C)C(=O)Nc1cc(-c2cn3nc(Cl)ccc3n2)ccc1C1CC1 [Example 270, N-(5-(6-chloroimidazo[1,2-b]pyridazin-2-yl)-2-cyclopropylphenyl)pivalamide] | – |
| – | 1260 nM | CCOc1ccc2nc(-c3ccc(C4CC4)c(NC(=O)C(C)(C)C)c3)cn2n1 [Example 272, N-(2-cyclopropyl-5-(6-ethoxyimidazo[1,2-b]pyridazin-2-yl)phenyl)pivalamide] | – |
| – | 1530 nM | C[C@@H]1CN(c2ccc3nc(-c4ccc(OC(F)(F)F)c(NC(=O)C(C)(C)C)c4)cn3n2)C[C@H](C)O1 [Example 463, N-(5-(6-((2R,6S)-2,6-dimethylmorpholino)imidazo[1,2-b]pyridazin-2-yl)-2-(trifluoromethoxy)phenyl)pivalamide] | – |
